Assay [1] deals with HEK293. Put plainly: Cytotoxicity against human HEK293 cells after 72 hrs by MTT assay. The note with it: HEK293, 72 h. The assay is classed as functional, cell-based.
Assay [2] is described as follows: Cytotoxicity against human H460 cells after 72 hrs by MTT assay. The format is functional, cell-based. The settings on record: NCI-H460, 72 h. Background: Tetrazolium assays rely on reduction of a dye to a coloured formazan, in cell work by metabolically active cells.
Assay [3] has as its system MCF7. Nature of the assay: Cytotoxicity against human MCF7 cells after 72 hrs by MTT assay. The assay is classed as functional, cell-based. The note with it: MCF7, 72 h.
Assay [4] can be described thus: Cytotoxicity against human KB-3-1 cells after 72 hrs by MTT assay. The settings on record: KB 3-1, 72 h. The assay is classed as functional, cell-based.
Assay [5] concerns HEK293. Put plainly: Cytotoxicity against human HEK293 cells assessed as inhibition of cell survival at 5 to 15 uM after 72 hrs by MTT assay relative to control. The assay is classed as functional, cell-based.
The subject of assay [6] is MCF7. Put plainly: Cytotoxicity against human MCF7 cells assessed as inhibition of cell survival at 5 to 15 uM after 72 hrs by MTT assay relative to control. The assay is classed as functional, cell-based.
Assay [7] concerns NCI-H460. Put plainly: Cytotoxicity against human H460 cells assessed as inhibition of cell survival at 5 to 15 uM after 72 hrs by MTT assay relative to control. The format is functional, cell-based.
The test system of assay [8] is KB 3-1. Nature of the assay: Cytotoxicity against human KB-3-1 cells assessed as inhibition of cell survival at 5 to 15 uM after 72 hrs by MTT assay relative to control. The format is functional, cell-based.
Assay [9] has as its system MCF7. Put plainly: Cytotoxicity against human MCF7 cells assessed as inhibition of cell survival at 0.5 uM after 72 hrs by MTT assay relative to control. The format is functional. The note with it: MCF7, 72 h.
Assay [10] concerns HEK293. Put plainly: Cytotoxicity against human HEK293 cells assessed as inhibition of cell survival at 0.5 uM after 72 hrs by MTT assay relative to control. The format is functional. The settings on record: HEK293, 72 h.
Assay [11] in a line: Cytotoxicity against human H460 cells assessed as inhibition of cell survival at 0.5 uM after 72 hrs by MTT assay relative to control. The assay is classed as functional. The note with it: NCI-H460, 72 h.

The source made the active and inactive calls. The rule behind the calls is not given here.

`CCCCCCCCCCCCCCCCCC(=O)Oc1cc(C(=O)c2cc(OC)c(OC)c(OC)c2)ccc1OC`: the IC50 in assay [1] came to 2640 nM; in [2], 4700 nM; in assay [3] it was 3350 nM; in assay [4] it was 2780 nM.

For the molecule `CCCCCCCC/C=C\CCCCCCCC(=O)Oc1ccc(C(=O)c2cc(OC)c(OC)c(OC)c2)cc1OC`, the half-maximal inhibitory concentration (IC50) in assay [1] was found to be 2360 nM; in assay [2], 2200 nM; in assay [3], 2170 nM; in assay [4], 1720 nM.

On to `COc1cc(C(=O)c2cc(OC)c(OC)c(OC)c2)ccc1O` [ISOPHENSTATIN], for which the IC50 in assay [1] came out at 196 nM; in assay [2], 188 nM; in assay [3] it was 199 nM; in assay [4], 146 nM.

For the molecule `COc1ccc(C(=O)c2cc(OC)c(OC)c(OC)c2)cc1O` [PHENSTATIN], the IC50 in [1] amounted to 23 nM; in assay [2] it was 20 nM; in assay [3], 19 nM; in assay [4] it was 15 nM.

Consider `CCCCC/C=C\C/C=C\CCCCCCCC(=O)Oc1ccc(C(=O)c2cc(OC)c(OC)c(OC)c2)cc1OC`, for which the inhibition result in [5], in assay [6], in assay [7] and in assay [8] was “Active” each time. The IC50 amounted to 903 nM in assay [1], 867 nM in assay [2], 745 nM in assay [3] and 547 nM in assay [4].

With `CCCCC/C=C\C/C=C\CCCCCCCC(=O)Oc1cc(C(=O)c2cc(OC)c(OC)c(OC)c2)ccc1OC`, the inhibition at 0.5 µM in [9], in [10] and in [11] was 20% in each case. Further, the IC50 stood at 210 nM in assay [1], 176 nM in [2], 181 nM in assay [3] and 163 nM in assay [4].

As to `COc1cc2c(c(OC)c1OC)-c1ccc(OC)c(=O)cc1[C@@H](NC(C)=O)CC2` [COLCHICINE], the IC50 is 9 nM in assay [1], 19 nM in [3] and 18 nM in assay [4].

`CCCCCCCC/C=C\CCCCCCCC(=O)Oc1cc(C(=O)c2cc(OC)c(OC)c(OC)c2)ccc1OC`: the IC50 stood at 950 nM in assay [1], 909 nM in assay [2], 943 nM in assay [3] and 786 nM in assay [4].

In the case of `CCCCCCCCCCCCCCCCCC(=O)Oc1ccc(C(=O)c2cc(OC)c(OC)c(OC)c2)cc1OC`, the IC50 in assay [1] is 15600 nM; in assay [2], 17600 nM; in assay [3], 26900 nM; in [4], 16900 nM.

One may read the IC50 as the concentration needed to halve the response being measured. Broadly, the inhibition is how much of the control response was suppressed.

These data come from ChEMBL document CHEMBL2434821, “New phenstatin-fatty acid conjugates: synthesis and evaluation” (Bioorg Med Chem Lett, 2013).
